{"source": "paper PMC7181660", "about": "“A novel specific PERK activator reduces toxicity and extends survival in Huntington's disease models” (Scientific Reports, 2020)", "experiment_in_all_cases": "biochemical", "assay_type_in_all_cases": "biochemical", "key": {"panel of 391 kinases [1]": {"target": "panel of 391 kinases (Homo sapiens, UniProt P22607)", "settings": "FGFR3, MK-28 1 µM, ATP 1 µM"}, "panel of 391 kinases [2]": {"target": "panel of 391 kinases (Homo sapiens, UniProt Q92918)", "settings": "HPK1/MAP4K1, MK-28 1 µM, ATP 1 µM"}, "panel of 391 kinases [3]": {"target": "panel of 391 kinases (Homo sapiens, UniProt Q13177)", "settings": "PAK2, MK-28 1 µM, ATP 1 µM"}, "panel of 391 kinases [4]": {"target": "panel of 391 kinases (Homo sapiens, UniProt O95747)", "sequence (O95747 whole entry)": "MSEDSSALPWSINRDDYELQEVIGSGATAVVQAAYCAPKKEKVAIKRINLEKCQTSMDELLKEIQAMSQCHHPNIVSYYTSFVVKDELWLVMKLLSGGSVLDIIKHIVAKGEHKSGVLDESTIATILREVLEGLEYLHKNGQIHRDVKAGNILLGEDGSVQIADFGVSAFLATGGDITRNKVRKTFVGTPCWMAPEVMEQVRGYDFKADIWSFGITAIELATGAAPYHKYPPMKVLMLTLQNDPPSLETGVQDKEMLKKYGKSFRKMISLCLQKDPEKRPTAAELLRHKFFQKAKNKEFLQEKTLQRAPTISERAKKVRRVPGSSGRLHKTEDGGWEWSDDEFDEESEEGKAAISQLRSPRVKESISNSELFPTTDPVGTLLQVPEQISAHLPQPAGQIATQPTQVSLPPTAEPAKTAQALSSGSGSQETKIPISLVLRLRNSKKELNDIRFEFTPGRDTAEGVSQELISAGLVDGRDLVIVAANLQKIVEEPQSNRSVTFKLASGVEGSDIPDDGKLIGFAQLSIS", "settings": "OSR1/OXSR1, MK-28 1 µM, ATP 1 µM"}, "panel of 391 kinases [5]": {"target": "panel of 391 kinases (Homo sapiens, UniProt P19525)", "sequence (P19525 whole entry)": "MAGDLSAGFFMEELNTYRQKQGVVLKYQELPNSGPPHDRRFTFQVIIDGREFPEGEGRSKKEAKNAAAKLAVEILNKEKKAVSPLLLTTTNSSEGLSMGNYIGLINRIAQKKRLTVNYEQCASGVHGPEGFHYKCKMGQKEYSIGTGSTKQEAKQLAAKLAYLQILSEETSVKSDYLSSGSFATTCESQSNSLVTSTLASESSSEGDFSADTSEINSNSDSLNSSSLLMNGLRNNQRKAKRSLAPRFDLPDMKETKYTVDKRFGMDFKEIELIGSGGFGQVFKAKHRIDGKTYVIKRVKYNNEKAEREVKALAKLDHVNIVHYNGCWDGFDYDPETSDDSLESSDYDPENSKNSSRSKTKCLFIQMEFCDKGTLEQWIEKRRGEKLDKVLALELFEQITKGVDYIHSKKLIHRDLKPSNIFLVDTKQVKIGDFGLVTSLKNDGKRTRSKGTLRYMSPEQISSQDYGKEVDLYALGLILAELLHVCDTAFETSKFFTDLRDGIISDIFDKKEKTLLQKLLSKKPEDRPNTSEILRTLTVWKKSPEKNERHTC", "settings": "kinase EIF2AK2, compound at 1 µM, single dose in duplicates, 1 µM ATP"}, "panel of 391 kinases [6]": {"target": "panel of 391 kinases (Homo sapiens, UniProt P35626)", "sequence (P35626 whole entry)": "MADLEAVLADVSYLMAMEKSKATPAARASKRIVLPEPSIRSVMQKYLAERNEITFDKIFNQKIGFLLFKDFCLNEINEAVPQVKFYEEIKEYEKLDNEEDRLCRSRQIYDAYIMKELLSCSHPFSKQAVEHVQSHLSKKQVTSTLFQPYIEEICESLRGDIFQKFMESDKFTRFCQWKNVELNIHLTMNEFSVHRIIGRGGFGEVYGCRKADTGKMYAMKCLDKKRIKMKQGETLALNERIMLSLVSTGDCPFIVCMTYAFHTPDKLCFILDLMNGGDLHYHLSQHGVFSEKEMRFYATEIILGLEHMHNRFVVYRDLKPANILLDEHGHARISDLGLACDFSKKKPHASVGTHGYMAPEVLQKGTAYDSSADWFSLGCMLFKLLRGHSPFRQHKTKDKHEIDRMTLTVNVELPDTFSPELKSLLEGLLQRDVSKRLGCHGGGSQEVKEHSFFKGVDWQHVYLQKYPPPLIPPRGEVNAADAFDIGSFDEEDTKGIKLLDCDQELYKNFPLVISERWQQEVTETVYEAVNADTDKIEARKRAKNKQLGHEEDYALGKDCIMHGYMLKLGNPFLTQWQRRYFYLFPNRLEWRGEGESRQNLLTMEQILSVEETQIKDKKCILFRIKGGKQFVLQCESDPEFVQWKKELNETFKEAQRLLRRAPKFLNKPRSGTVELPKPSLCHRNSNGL", "settings": "GRK3, MK-28 1 µM, ATP 1 µM"}, "panel of 391 kinases [7]": {"target": "panel of 391 kinases (Homo sapiens, UniProt P21709)", "settings": "EPHA1, MK-28 1 µM, ATP 1 µM"}, "panel of 391 kinases [8]": {"target": "panel of 391 kinases (Homo sapiens, UniProt Q96SB4)", "sequence (Q96SB4 whole entry)": "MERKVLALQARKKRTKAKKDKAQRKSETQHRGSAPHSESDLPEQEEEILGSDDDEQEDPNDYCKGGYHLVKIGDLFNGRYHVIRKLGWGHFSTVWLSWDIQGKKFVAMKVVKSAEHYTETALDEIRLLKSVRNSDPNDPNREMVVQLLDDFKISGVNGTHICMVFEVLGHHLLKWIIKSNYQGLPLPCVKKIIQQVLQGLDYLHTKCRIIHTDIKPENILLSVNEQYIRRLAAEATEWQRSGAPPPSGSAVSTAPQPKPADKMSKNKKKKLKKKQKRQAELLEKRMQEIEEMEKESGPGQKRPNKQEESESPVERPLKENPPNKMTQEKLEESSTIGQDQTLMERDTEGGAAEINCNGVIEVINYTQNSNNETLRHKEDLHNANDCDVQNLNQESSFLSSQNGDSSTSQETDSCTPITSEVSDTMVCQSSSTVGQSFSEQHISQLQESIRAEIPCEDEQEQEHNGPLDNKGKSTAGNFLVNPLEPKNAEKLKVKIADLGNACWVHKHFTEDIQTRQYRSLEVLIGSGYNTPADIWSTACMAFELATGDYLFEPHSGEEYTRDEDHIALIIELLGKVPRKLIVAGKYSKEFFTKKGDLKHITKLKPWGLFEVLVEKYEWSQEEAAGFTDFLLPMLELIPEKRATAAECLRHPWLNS", "settings": "SRPK1, MK-28 1 µM, ATP 1 µM"}, "panel of 391 kinases [9]": {"target": "panel of 391 kinases (Homo sapiens, UniProt Q8N752)", "settings": "CK1a1L, MK-28 1 µM, ATP 1 µM"}, "panel of 391 kinases [10]": {"target": "panel of 391 kinases (Homo sapiens, UniProt P24941)", "settings": "MK-28 1 µM, ATP 1 µM; for remaining activity at 1 µM: read-out: % Enzyme Activity (relative to DMSO controls)"}, "panel of 391 kinases [11]": {"target": "panel of 391 kinases (Homo sapiens, UniProt Q9UIK4)", "settings": "DAPK2, MK-28 1 µM, ATP 1 µM"}, "panel of 391 kinases [12]": {"target": "panel of 391 kinases (Homo sapiens, UniProt P37173)", "settings": "TGFBR2, MK-28 1 µM, ATP 1 µM"}, "panel of 391 kinases [13]": {"target": "T1, panel of 391 kinases (Homo sapiens, UniProt P10398)", "T1 sequence (P10398 1-606)": "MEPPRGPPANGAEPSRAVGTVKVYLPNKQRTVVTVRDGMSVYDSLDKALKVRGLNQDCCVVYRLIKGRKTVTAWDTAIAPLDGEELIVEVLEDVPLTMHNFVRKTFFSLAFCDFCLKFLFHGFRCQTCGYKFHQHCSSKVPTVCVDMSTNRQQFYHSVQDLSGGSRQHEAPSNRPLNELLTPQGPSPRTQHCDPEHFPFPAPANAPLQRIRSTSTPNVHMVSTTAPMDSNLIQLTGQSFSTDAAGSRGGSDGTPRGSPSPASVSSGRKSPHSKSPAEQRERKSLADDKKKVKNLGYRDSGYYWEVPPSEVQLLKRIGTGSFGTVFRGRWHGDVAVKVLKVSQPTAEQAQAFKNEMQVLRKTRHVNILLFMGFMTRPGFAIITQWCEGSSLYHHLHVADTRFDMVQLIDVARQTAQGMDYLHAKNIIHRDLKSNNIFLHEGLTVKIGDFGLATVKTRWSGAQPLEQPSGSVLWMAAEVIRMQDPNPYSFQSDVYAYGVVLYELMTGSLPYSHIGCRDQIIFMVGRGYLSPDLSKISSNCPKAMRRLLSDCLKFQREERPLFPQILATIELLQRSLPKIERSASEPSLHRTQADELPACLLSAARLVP", "settings": "ARAF, MK-28 1 µM, ATP 1 µM"}, "panel of 391 kinases [14]": {"target": "panel of 391 kinases (Homo sapiens, UniProt Q9UBS0)", "sequence (Q9UBS0 whole entry)": "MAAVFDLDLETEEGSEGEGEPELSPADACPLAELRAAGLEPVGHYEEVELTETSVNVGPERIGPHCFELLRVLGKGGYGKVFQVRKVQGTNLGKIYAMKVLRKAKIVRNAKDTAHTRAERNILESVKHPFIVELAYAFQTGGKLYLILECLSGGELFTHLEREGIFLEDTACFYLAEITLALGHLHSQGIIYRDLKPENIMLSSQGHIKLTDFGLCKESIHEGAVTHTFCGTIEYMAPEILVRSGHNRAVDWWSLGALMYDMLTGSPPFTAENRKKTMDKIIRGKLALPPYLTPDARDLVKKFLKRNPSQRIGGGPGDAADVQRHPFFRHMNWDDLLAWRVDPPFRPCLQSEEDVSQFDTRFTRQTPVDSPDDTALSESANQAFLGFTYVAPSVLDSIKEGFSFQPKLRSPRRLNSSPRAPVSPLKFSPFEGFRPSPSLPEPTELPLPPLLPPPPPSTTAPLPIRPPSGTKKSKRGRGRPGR", "settings": "p70S6Kb/RPS6KB2, MK-28 1 µM, ATP 1 µM"}, "panel of 391 kinases [15]": {"target": "panel of 391 kinases (Homo sapiens, UniProt Q13164)", "sequence (Q13164 whole entry)": "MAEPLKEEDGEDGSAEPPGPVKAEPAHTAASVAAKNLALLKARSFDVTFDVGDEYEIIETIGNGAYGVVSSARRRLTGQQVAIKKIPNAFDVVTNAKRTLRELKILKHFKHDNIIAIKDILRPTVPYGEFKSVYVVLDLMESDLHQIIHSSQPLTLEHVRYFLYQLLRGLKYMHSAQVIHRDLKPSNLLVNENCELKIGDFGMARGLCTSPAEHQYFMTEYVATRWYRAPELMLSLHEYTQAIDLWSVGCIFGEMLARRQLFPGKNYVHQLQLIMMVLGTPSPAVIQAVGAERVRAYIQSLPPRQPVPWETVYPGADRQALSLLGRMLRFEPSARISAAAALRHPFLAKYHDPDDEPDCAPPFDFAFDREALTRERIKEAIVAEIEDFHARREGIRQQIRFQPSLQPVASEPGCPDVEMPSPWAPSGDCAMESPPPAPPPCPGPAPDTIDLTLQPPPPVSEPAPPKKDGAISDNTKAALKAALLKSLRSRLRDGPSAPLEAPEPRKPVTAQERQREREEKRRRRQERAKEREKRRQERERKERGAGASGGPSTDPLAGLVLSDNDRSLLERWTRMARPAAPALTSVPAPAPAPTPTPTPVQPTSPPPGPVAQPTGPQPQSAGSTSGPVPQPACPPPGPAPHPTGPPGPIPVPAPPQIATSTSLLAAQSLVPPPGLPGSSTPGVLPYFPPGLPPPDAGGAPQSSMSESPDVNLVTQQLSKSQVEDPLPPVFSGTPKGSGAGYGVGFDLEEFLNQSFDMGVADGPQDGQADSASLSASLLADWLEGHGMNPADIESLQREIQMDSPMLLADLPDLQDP", "settings": "ERK5/MAPK7, MK-28 1 µM, ATP 1 µM"}, "panel of 391 kinases [16]": {"target": "panel of 391 kinases (Homo sapiens, UniProt P07333)", "settings": "FMS, MK-28 1 µM, ATP 1 µM"}, "panel of 391 kinases [17]": {"target": "panel of 391 kinases (Homo sapiens, UniProt Q9Y2H1)", "settings": "STK38L/NDR2, MK-28 1 µM, ATP 1 µM"}, "panel of 391 kinases [18]": {"target": "panel of 391 kinases (Homo sapiens, UniProt Q76MJ5)", "settings": "ERN2/IRE2, MK-28 1 µM, ATP 1 µM"}, "panel of 391 kinases [19]": {"target": "panel of 391 kinases (Homo sapiens, UniProt O95835)", "sequence (O95835 whole entry)": "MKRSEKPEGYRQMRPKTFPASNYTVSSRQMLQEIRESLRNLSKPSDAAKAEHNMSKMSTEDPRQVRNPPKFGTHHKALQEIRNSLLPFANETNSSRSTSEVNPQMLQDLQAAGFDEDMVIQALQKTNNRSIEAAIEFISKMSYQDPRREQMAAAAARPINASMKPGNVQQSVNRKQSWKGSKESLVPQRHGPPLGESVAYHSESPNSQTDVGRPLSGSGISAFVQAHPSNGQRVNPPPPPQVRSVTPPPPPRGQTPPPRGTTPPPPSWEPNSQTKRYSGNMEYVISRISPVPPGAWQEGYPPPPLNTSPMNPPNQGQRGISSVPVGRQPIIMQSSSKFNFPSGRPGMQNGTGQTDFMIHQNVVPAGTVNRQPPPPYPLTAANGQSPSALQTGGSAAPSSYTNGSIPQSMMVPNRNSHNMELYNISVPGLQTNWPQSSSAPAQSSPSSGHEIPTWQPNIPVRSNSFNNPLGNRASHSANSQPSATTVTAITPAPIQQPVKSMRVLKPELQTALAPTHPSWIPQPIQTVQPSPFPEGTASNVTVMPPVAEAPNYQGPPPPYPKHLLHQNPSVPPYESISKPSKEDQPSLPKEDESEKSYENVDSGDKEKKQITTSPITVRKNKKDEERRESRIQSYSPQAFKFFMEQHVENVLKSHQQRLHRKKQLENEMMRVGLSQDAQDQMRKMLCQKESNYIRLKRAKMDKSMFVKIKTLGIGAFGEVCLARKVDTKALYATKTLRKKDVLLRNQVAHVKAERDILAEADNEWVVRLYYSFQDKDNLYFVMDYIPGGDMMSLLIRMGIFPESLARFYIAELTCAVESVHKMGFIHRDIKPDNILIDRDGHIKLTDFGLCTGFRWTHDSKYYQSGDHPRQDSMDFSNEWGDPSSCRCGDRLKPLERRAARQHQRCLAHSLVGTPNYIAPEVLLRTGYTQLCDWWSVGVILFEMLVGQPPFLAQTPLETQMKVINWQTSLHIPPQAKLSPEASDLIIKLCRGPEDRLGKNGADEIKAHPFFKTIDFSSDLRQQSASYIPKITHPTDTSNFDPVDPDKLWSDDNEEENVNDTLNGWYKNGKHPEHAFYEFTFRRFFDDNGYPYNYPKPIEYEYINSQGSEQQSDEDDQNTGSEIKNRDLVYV", "settings": "LATS1, MK-28 1 µM, ATP 1 µM"}, "panel of 391 kinases [20]": {"target": "panel of 391 kinases (Homo sapiens, UniProt Q96RG2)", "settings": "PASK, MK-28 1 µM, ATP 1 µM"}, "[21]": {"settings": "read-out: % Enzyme Activity (relative to DMSO controls)"}}, "note": "Like-named read-outs stand apart in the source and are kept apart here.", "data": [{"smiles": "CN(/N=C\\c1ccc(O)c(O)c1)c1nc(-c2ccccc2)cc(-c2ccccc2)n1", "note": "[MK-28]", "values": [{"measurement": "% Enzyme Activity (relative to DMSO controls)", "setting": "panel of 391 kinases [1]", "result": 103.07, "unit": "%"}, {"measurement": "remaining activity at 1 µM", "setting": "panel of 391 kinases [1]; [21]", "result": 103, "unit": "%"}, {"measurement": "% Enzyme Activity (relative to DMSO controls)", "setting": "panel of 391 kinases [2]", "result": 114.23, "unit": "%"}, {"measurement": "remaining activity at 1 µM", "setting": "panel of 391 kinases [2]; [21]", "result": 117, "unit": "%"}, {"measurement": "% Enzyme Activity (relative to DMSO controls)", "setting": "panel of 391 kinases [3]", "result": 99.51, "unit": "%"}, {"measurement": "remaining activity at 1 µM", "setting": "panel of 391 kinases [3]; [21]", "result": 99.7, "unit": "%"}, {"measurement": "% Enzyme Activity (relative to DMSO controls)", "setting": "panel of 391 kinases [4]", "result": 101.98, "unit": "%"}, {"measurement": "remaining activity at 1 µM", "setting": "panel of 391 kinases [4]; [21]", "result": 105, "unit": "%"}, {"measurement": "% Enzyme Activity (relative to DMSO controls)", "setting": "panel of 391 kinases [5]", "result": 97.81, "unit": "%"}, {"measurement": "remaining activity at 1 µM", "setting": "panel of 391 kinases [5]; [21]", "result": 99, "unit": "%"}, {"measurement": "% Enzyme Activity (relative to DMSO controls)", "setting": "panel of 391 kinases [6]", "result": 99.99, "unit": "%"}, {"measurement": "remaining activity at 1 µM", "setting": "panel of 391 kinases [6]; [21]", "result": 102, "unit": "%"}, {"measurement": "% Enzyme Activity (relative to DMSO controls)", "setting": "panel of 391 kinases [7]", "result": 99.87, "unit": "%"}, {"measurement": "remaining activity at 1 µM", "setting": "panel of 391 kinases [7]; [21]", "result": 102, "unit": "%"}, {"measurement": "% Enzyme Activity (relative to DMSO controls)", "setting": "panel of 391 kinases [8]", "result": 103.25, "unit": "%"}, {"measurement": "remaining activity at 1 µM", "setting": "panel of 391 kinases [8]; [21]", "result": 104, "unit": "%"}, {"measurement": "% Enzyme Activity (relative to DMSO controls)", "setting": "panel of 391 kinases [9]", "result": 99.36, "unit": "%"}, {"measurement": "remaining activity at 1 µM", "setting": "panel of 391 kinases [9]; [21]", "result": 100, "unit": "%"}, {"measurement": "% Enzyme Activity (relative to DMSO controls)", "setting": "panel of 391 kinases [10]; CDK2/Cyclin A1", "result": 112.90, "unit": "%"}, {"measurement": "remaining activity at 1 µM", "setting": "panel of 391 kinases [10]; CDK2/Cyclin A1", "result": 118, "unit": "%"}, {"measurement": "% Enzyme Activity (relative to DMSO controls)", "setting": "panel of 391 kinases [10]; CDK2/cyclin A", "result": 102.50, "unit": "%"}, {"measurement": "remaining activity at 1 µM", "setting": "panel of 391 kinases [10]; CDK2/cyclin A", "result": 104, "unit": "%"}, {"measurement": "% Enzyme Activity (relative to DMSO controls)", "setting": "panel of 391 kinases [10]; CDK2/cyclin E2", "result": 99.65, "unit": "%"}, {"measurement": "remaining activity at 1 µM", "setting": "panel of 391 kinases [10]; CDK2/cyclin E2", "result": 100, "unit": "%"}, {"measurement": "% Enzyme Activity (relative to DMSO controls)", "setting": "panel of 391 kinases [10]; CDK2/cyclin E", "result": 95.41, "unit": "%"}, {"measurement": "remaining activity at 1 µM", "setting": "panel of 391 kinases [10]; CDK2/cyclin E", "result": 97, "unit": "%"}, {"measurement": "% Enzyme Activity (relative to DMSO controls)", "setting": "panel of 391 kinases [10]; CDK2/cyclin O", "result": 124.92, "unit": "%"}, {"measurement": "remaining activity at 1 µM", "setting": "panel of 391 kinases [10]; CDK2/cyclin O", "result": 126, "unit": "%"}, {"measurement": "% Enzyme Activity (relative to DMSO controls)", "setting": "panel of 391 kinases [11]", "result": 98.71, "unit": "%"}, {"measurement": "remaining activity at 1 µM", "setting": "panel of 391 kinases [11]; [21]", "result": 104, "unit": "%"}, {"measurement": "% Enzyme Activity (relative to DMSO controls)", "setting": "panel of 391 kinases [12]", "result": 94.50, "unit": "%"}, {"measurement": "remaining activity at 1 µM", "setting": "panel of 391 kinases [12]; [21]", "result": 102, "unit": "%"}, {"measurement": "% Enzyme Activity (relative to DMSO controls)", "setting": "panel of 391 kinases [13]", "result": 93.30, "unit": "%"}, {"measurement": "remaining activity at 1 µM", "setting": "panel of 391 kinases [13]; [21]", "result": 96.2, "unit": "%"}, {"measurement": "% Enzyme Activity (relative to DMSO controls)", "setting": "panel of 391 kinases [14]", "result": 91.85, "unit": "%"}, {"measurement": "remaining activity at 1 µM", "setting": "panel of 391 kinases [14]; [21]", "result": 93.6, "unit": "%"}, {"measurement": "% Enzyme Activity (relative to DMSO controls)", "setting": "panel of 391 kinases [15]", "result": 118.22, "unit": "%"}, {"measurement": "remaining activity at 1 µM", "setting": "panel of 391 kinases [15]; [21]", "result": 119, "unit": "%"}, {"measurement": "% Enzyme Activity (relative to DMSO controls)", "setting": "panel of 391 kinases [16]", "result": 101.26, "unit": "%"}, {"measurement": "remaining activity at 1 µM", "setting": "panel of 391 kinases [16]; [21]", "result": 102, "unit": "%"}, {"measurement": "% Enzyme Activity (relative to DMSO controls)", "setting": "panel of 391 kinases [17]", "result": 94.10, "unit": "%"}, {"measurement": "remaining activity at 1 µM", "setting": "panel of 391 kinases [17]; [21]", "result": 96, "unit": "%"}, {"measurement": "% Enzyme Activity (relative to DMSO controls)", "setting": "panel of 391 kinases [18]", "result": 97.92, "unit": "%"}, {"measurement": "remaining activity at 1 µM", "setting": "panel of 391 kinases [18]; [21]", "result": 99.7, "unit": "%"}, {"measurement": "% Enzyme Activity (relative to DMSO controls)", "setting": "panel of 391 kinases [19]", "result": 99.22, "unit": "%"}, {"measurement": "remaining activity at 1 µM", "setting": "panel of 391 kinases [19]; [21]", "result": 101, "unit": "%"}, {"measurement": "% Enzyme Activity (relative to DMSO controls)", "setting": "panel of 391 kinases [20]", "result": 91.44, "unit": "%"}, {"measurement": "remaining activity at 1 µM", "setting": "panel of 391 kinases [20]; [21]", "result": 95.4, "unit": "%"}]}]}
